Test results as given in patent US8513233B2, “Pyrimidinyl-propionic acid derivatives and their use as PPAR agonists” (Shanghai Institute of Materia Medica, CAS, priority 2007, dated 2013).

What was measured:
SPC-A1 = experiment: Growth inhibition, modified MTT assay, SPC-A1; type: cell-based; conditions: SPCA1, mean of 3 independent tests
Protocol: (§1) The growth inhibition was evaluated by the modified MTT assay. Briefly, the cells were seeded at 1×10^4 cells/well in 96-well plates (Falcon, Calif., USA), and incubated for 24 h in […] culture media with 10% FCS. The media were then replaced by serum-free medium. After 24 h, the media were placed in triplicate with grade concentrations of compounds. As controls, the cells were cultivated in DMEM/F12 only. The cells were then treated by MTT (Sigma, USA) assay, […] (5 g/L) for 4 h. After the removal of the supernatant, the purple-blue sediment was dissolved in 100 μL/well DMSO, and the optical densities were read on the multi-well scanning spectrophotometer (Labsystems Dragon, Finland) at 492 nm (A492). The growth inhibition rate (GIR) of the treated cells was calculated using Equation: GIR(%)={1−[A490/A490(control)]}×100% The results were also converted to IC50 (the compound concentration required for 50% growth inhibition of tumor cells), which were calculated by using the sigmoidal fitting model by the Origin 7.0 software (OriginLab, Northampton, Mass., USA). The mean IC50 was determined from the results of 3 independent tests.

T24 = experiment: Growth inhibition, modified MTT assay, T24; type: cell-based; conditions: Homo sapiens, T-24, mean of 3 independent tests
Protocol: as §1

HepG2 = experiment: Growth inhibition, modified MTT assay, HepG2; type: cell-based; conditions: Homo sapiens, mean of 3 independent tests
Protocol: as §1

MCF-7 = experiment: Growth inhibition, modified MTT assay, MCF-7; type: cell-based; conditions: Homo sapiens, MCF7; MCF-7, MTT, mean of 3 independent tests
Protocol: as §1

PPAR-γ = target: T1, PPAR-γ (Homo sapiens, UniProt P37231); experiment: Transient transfection and transcription assay (luciferase reporter, U2OS cells); type: cell-based; conditions: 24 h treatment
T1 construct: expressed in transfected cells; host or cells: U2OS cells, transiently transfected with pcDNA3.1 expression vectors (FuGene6)
T1 sequence (P37231 1-505): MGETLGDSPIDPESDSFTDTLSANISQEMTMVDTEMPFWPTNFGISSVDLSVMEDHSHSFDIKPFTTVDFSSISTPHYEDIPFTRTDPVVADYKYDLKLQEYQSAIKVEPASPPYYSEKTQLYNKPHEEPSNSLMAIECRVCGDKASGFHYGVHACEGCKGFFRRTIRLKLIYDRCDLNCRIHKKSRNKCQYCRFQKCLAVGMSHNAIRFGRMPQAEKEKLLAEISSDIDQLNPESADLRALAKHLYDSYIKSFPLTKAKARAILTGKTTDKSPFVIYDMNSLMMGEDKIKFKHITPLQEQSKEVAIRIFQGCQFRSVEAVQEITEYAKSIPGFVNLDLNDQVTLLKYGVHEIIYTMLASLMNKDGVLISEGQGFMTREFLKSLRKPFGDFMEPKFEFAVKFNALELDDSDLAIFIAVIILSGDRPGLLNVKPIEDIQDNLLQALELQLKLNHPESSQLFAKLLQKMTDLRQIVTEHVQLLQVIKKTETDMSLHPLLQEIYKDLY
T1 sequence (P19793 1-462 partner): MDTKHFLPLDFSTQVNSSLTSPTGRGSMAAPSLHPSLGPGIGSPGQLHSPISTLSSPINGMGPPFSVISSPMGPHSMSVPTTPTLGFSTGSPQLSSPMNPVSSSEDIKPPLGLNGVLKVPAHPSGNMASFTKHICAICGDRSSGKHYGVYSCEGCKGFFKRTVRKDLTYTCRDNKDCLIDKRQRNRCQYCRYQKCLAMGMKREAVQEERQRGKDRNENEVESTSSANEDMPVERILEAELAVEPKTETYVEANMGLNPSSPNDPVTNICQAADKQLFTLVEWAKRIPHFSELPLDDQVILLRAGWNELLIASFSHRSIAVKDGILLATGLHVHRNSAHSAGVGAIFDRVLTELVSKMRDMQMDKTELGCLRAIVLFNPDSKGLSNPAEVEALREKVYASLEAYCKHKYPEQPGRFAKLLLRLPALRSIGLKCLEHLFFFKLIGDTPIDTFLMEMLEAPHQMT
Protocol: cDNAs for Human RXR, PPAR were obtained by RTPCR from the human liver or adipose tissues. Amplified cDNAs were cloned into pcDNA3.1 expression vector and the inserts were confirmed by sequencing. U2OS cells were cultured in McCoy's 5A with 10% heat-inactivated fetal bovine serum in a humidified 5% CO2 atmosphere at 37° C. Cells were seeded in 96-well plates the day before transfection to give a confluence of 50-80% at transfection. A total of 60 ng of DNA containing 10 ng of hRXR, 10 ng of pCMV Gal, 10 ng of nuclear receptor expression vectors and 30 ng of the corresponding reporters were cotransfected per well using FuGene6 transfection reagent according to the manufacturer's instructions. […] The final concentration of DMSO in culture medium was 0.1%. […] Luciferase activity was monitored using the luciferase assay kit according to the manufacturers instructions. Light emission was read in a Labsystems Ascent Fluoroskan reader. To measure galactosidase activity to normalize the luciferase data, 50 IL of supernatant from each transfection lysate was transferred to a new microplate. Galactosidase assays were performed in the microwell plates using a kit from Promega and read in a microplate reader. Compounds were tested in five concentrations ranging from 0.01 to 10 μM. […] The results were expressed as means (SD).

| IC50 (T24) [µM] | IC50 (HepG2) [µM] | IC50 (MCF-7) [µM] | EC50 (PPAR-γ) [µM] | melting point [°C] | SMILES | IC50 (SPC-A1) [µM] |
| --- | --- | --- | --- | --- | --- | --- |
| 15.8 | 22.2 | 12.5 | 3.98 | 127 to 129 | CC(Cc1ccc(Oc2cc(N3CCN(Cc4ccccc4)CC3)nc(N3CCOCC3)n2)cc1)(Oc1ccccc1)C(=O)O (centres unmarked) [Compound 53, 3-{4-[6-(4-Benzyl-piperazin-1-yl)-2-morpholin-4-yl-pyrimidin-4-yloxy]-phenyl}-2-methyl-2-phenoxy-propionic acid] | 22.4 |
| > 50 | > 50 | > 50 | 3.8 | 126 to 127 | CC(Cc1ccc(Oc2cc(N3CCN(Cc4ccccc4)CC3)nc(N3CCCC3)n2)cc1)(Oc1ccccc1)C(=O)O (centres unmarked) [Compound 54, 3-{4-[6-(4-Benzyl-piperazin-1-yl)-2-pyrrolidin-1-yl-pyrimidin-4-yloxy]-phenyl}-2-methyl-2-phenoxy-propionic acid] | > 50 |
| > 50 | > 50 | 33.7 | 6.03 | 106 to 107 | CCNc1nc(Oc2ccc(CC(C)(Oc3ccccc3)C(=O)O)cc2)cc(N2CCN(Cc3ccccc3)CC2)n1 (centres unmarked) [Compound 50, 3-{4-[6-(4-Benzyl-piperazin-1-yl)-2-ethylamino-pyrimidin-4-yloxy]-phenyl}-2-methyl-2-phenoxy-propionic acid] | 46.6 |
| 12.4 | 17.9 | 17.6 | 4.68 | 125 to 126 | CC(Cc1ccc(Oc2cc(N3CCN(Cc4ccccc4)CC3)nc(N3CCCCC3)n2)cc1)(Oc1ccccc1)C(=O)O (centres unmarked) [Compound 52, 3-{4-[6-(4-Benzyl-piperazin-1-yl)-2-piperidin-1-yl-pyrimidin-4-yloxy]-phenyl}-2-methyl-2-phenoxy-propionic acid] | 7.8 |
| 11.1 | 35.2 | 15.4 | 4.68 | 135 to 137 | CC(Cc1ccc(Oc2cc(Oc3ccccc3)nc(N3CCN(Cc4ccccc4)CC3)n2)cc1)(Oc1ccccc1)C(=O)O (centres unmarked) [Compound 44, 3-{4-[2-(4-Benzyl-piperazin-1-yl)-6-phenoxy-pyrimidin-4-yloxy]-phenyl}-2-methyl-2-phenoxy-propionic acid] | 14.1 |
| 40.3 | > 50 | 45.3 | – | 160 to 162 | CC(Cc1ccc(Oc2cc(N3CCN(Cc4ccc([N+](=O)[O-])cc4)CC3)nc(N)n2)cc1)(Oc1ccccc1)C(=O)O (centres unmarked) [Compound 38, 3-{4-{2-Amino-6-[4-(4-nitro-benzyl)-piperazin-1-yl]-pyrimidin-4-yloxy}-phenyl}-2-methyl-2-phenoxy-propionic acid] | > 50 |
| > 50 | > 50 | 33.5 | 1.62 | 126 to 128 | CC(Cc1ccc(Oc2cc(N3CCN(Cc4ccccc4)CC3)nc(Oc3ccccc3)n2)cc1)(Oc1ccccc1)C(=O)O (centres unmarked) [Compound 43, 3-{4-[6-(4-Benzyl-piperazin-1-yl)-2-phenoxy-pyrimidin-4-yloxy]-phenyl}-2-methyl-2-phenoxy-propionic acid] | 32.5 |

Further lines, the molecule ahead of its results:

| SMILES | IC50 (T24) [µM] | IC50 (HepG2) [µM] | IC50 (MCF-7) [µM] | EC50 (PPAR-γ) [µM] | melting point [°C] | IC50 (SPC-A1) [µM] |
| --- | --- | --- | --- | --- | --- | --- |
| CC(Cc1ccc(Oc2cc(N3CCN(Cc4cccc(Br)c4)CC3)nc(N)n2)cc1)(Oc1ccccc1)C(=O)O (centres unmarked) [Compound 16, 3-{4-{2-Amino-6-[4-(3-bromo-benzyl)-piperazin-1-yl]-pyrimidin-4-yloxy}-phenyl}-2-methyl-2-phenoxy-propionic acid] | 41 | 48 | 30 | 6.31 | 119 to 120 | 37 |
| CC(Cc1ccc(Oc2cc(N3CCN(Cc4ccc5c(c4)OCO5)CC3)nc(N)n2)cc1)(Oc1ccccc1)C(=O)O (centres unmarked) [Compound 5] | > 50 | > 50 | > 50 | 6.46 | 190 to 192 | > 50 |
| CC(Cc1ccc(Oc2cc(N3CCN(CC(=O)c4ccccc4)CC3)nc(N)n2)cc1)(Oc1ccccc1)C(=O)O (centres unmarked) [Compound 18, 3-{4-{2-Amino-6-[4-(2-oxo-2-phenyl-ethyl)-piperazin-1-yl]-pyrimidin-4-yloxy}-phenyl}-2-methyl-2-phenoxy-propionic acid] | > 50 | > 50 | > 50 | 6.46 | 107 to 108 | > 50 |
| CC(Cc1ccc(Oc2cc(N3CCN(Cc4ccc(Br)cc4)CC3)nc(N)n2)cc1)(Oc1ccccc1)C(=O)O (centres unmarked) [Compound 15, 3-{4-{2-Amino-6-[4-(4-bromo-benzyl)-piperazin-1-yl]-pyrimidin-4-yloxy}-phenyl}-2-methyl-2-phenoxy-propionic acid] | > 50 | > 50 | 42.2 | 5.89 | 112 to 114 | 45.3 |
| CC(Cc1ccc(Oc2cc(N3CCN(Cc4cccc(F)c4)CC3)nc(N)n2)cc1)(Oc1ccccc1)C(=O)O (centres unmarked) [Compound 12, 3-{4-{2-Amino-6-[4-(3-fluoro-benzyl)-piperazin-1-yl]-pyrimidin-4-yloxy}-phenyl}-2-methyl-2-phenoxy-propionic acid] | > 50 | > 50 | > 50 | 6.46 | 113 to 115 | > 50 |
| CC(Cc1ccc(Oc2cc(N3CCN(Cc4ccc(Cl)cc4)CC3)nc(N)n2)cc1)(Oc1ccccc1)C(=O)O (centres unmarked) [Compound 13, 3-{4-{2-Amino-6-[4-(4-chloro-benzyl)-piperazin-1-yl]-pyrimidin-4-yloxy}-phenyl}-2-methyl-2-phenoxy-propionic acid] | 45.6 | > 50 | 48.9 | – | 103 to 105 | > 50 |
| CC(Cc1ccc(Oc2cc(N3CCN(Cc4ccc(C(F)(F)F)cc4)CC3)nc(N)n2)cc1)(Oc1ccccc1)C(=O)O (centres unmarked) [Compound 8, 3-{4-{2-Amino-6-[4-(4-trifluoromethyl-benzyl)-piperazin-1-yl]-pyrimidin-4-yloxy}-phenyl}-2-methyl-2-phenoxy-propionic acid] | 36.2 | > 50 | 28.5 | – | 114 to 115 | 42.5 |
| CC(Cc1ccc(Oc2cc(N3CCN(c4ccccn4)CC3)nc(N)n2)cc1)(Oc1ccccc1)C(=O)O (centres unmarked) [Compound 19, 3-{4-[2-Amino-6-(4-pyridin-2-yl-piperazin-1-yl)-pyrimidin-4-yloxy]-phenyl}-2-methyl-2-phenoxy-propionic acid] | – | 49.5 | > 50 | 6.31 | 110 to 111 | 42.5 |
